Source: US20210223230A1, “Neamine Compositions and Methods of Use Thereof” (President and Fellows of Harvard College, priority 2008, published 2021)

Key:
AR = target: T1, AR (Homo sapiens, UniProt P10275, T878A); assay: Nuclear translocation of AR in LNCaP cells by immunofluorescence; format: cell-based; conditions: ANG 0.1 μg/ml, 2 h
T1 construct: in untreated LNCaP cells, AR was diffusely distributed throughout the cytoplasm; endogenous in cells; host or cells: LNCaP
T1 sequence (P10275 1-920 T878A): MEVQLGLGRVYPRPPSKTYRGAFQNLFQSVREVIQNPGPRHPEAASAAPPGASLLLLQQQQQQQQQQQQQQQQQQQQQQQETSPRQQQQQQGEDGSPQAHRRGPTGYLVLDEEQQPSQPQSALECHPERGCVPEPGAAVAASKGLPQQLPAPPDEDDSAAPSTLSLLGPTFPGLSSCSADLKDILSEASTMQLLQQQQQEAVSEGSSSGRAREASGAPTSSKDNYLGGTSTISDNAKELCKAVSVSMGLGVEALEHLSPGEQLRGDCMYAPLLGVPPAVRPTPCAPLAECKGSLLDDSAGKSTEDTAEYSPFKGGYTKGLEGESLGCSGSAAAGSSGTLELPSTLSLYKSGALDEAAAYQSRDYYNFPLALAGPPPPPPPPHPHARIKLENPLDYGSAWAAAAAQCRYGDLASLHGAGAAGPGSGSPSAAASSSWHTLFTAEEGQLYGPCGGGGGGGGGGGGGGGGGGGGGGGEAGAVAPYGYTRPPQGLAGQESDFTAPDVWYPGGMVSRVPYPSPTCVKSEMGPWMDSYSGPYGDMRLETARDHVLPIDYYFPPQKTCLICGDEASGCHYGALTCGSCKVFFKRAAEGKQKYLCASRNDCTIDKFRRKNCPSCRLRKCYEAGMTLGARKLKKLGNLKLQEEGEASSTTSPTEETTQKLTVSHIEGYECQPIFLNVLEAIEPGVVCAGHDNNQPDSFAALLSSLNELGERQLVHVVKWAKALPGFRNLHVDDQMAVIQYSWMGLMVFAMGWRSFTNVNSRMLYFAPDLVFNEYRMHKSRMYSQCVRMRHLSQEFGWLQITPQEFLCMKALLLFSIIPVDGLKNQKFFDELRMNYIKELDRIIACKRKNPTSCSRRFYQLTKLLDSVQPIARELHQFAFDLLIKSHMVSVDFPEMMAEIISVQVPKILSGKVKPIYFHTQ
Method: FIG. 19 is a four panel figure that depicts a series of photographs showing immunofluorescently labeled LNCaP cells, showing the effect of ANG on nuclear translocation of AR (panels a-d). LNCaP cells were cultured in charcoal/dextran-stripped FBS and phenol red-free medium for 2 days, and incubated with ANG (0.1 μg/ml), DHT (10 nM) or DHT (10 nM)+anti-ANG mAb 26-2F (30 μg/ml) for 2 h. The cells were fixed and stained for AR by immunofluorescence.

47S rRNA = assay: rRNA transcription in LNCaP cells by Northern blotting; format: cell-based, human; conditions: ANG 0.1 μg/ml, 26-2F 60 μg/ml, 2 h
Method: (§1) (a) ANG stimulates LNCaP cell proliferation in the absence of androgens. Cells were culture in phenol red-free and charcoal/dextran-stripped (steroid-free) FBS for 2 day and stimulated with DHT (10 nM), ANG (0.1 μg/ml), or a mixture of the two for the time indicated. (b) Dose dependence. ANG was added to the cells and cultured for 4 days. (c) Anti-ANG mAb 26-2F inhibits DHT-induced cell proliferation. LNCaP cells were stimulated with 10 nM DHT in the presence of 26-2F or a control non-immune IgG for 3 days. (d) ANG over-expression promotes LNCaP proliferation in vitro. The vector control (pCI-Neo) and ANG transfectants (pCI-ANG) were cultured in phenol red-free and steroid-free medium for the time indicated. (e) Xenograft growth in castrated SCID mice. A mixture of 70 μl cell suspension (1×10^6 cells) and 30 μl Matrigel was injected s.c. per mouse (8 per group). The mice were castrated or sham-operated at the same time. Tumors were inspected and measured twice a week and the animals were sacrificed after 8 weeks of observation. (f) Endogenous ANG of LNCaP cells is essential for androgen-induced rRNA transcription. LNCaP cells were cultured in phenol red-free and steroid-free medium and incubated with DHT (10 nM), ANG (0.1 μg/ml), anti-ANG mAb 26-2F (60 μg/ml) or a mixture of DHT and 26-2F for 2 h. […]

PIN = assay: Injection of human ANG protein into the ventral prostate of MPAKT mice (cancer invasion); format: in vivo; conditions: 50 μg per mouse, 9 weeks-old MPAKT mice, sacrificed 2 weeks later
Method: Human ANG protein, 50 μg per mouse, was injected into the surgically exposed ventral prostate of 9 weeks-old MPAKT mice. The mice were sacrificed 2 weeks later and the prostates were processed for H&E staining. Cells invading outside of the basement membrane are indicated by arrows.

[1] = system: PC-3, PC-3M, and DU-145 cells; assay: Proliferation of androgen-independent prostate cancer cells; format: cell-based, human
LNCaP cells = assay: LNCaP cell proliferation in phenol red-free and steroid-free medium; format: cell-based, human; conditions: ANG 0.1 μg/ml, DHT 10 nM
Method: as §1

- nuclear translocation of AR in the absence of androgen (AR): stimulated
Substance: ANG: angiogenin, a 14 kDa angiogenic ribonuclease
- rRNA transcription in LNCaP cells (47S rRNA): stimulated
- animals with micro invasions (PIN): 2 of the 4
- effect of exogenously added ANG on cell proliferation [1]: no effect
- LNCaP cell proliferation in the absence of androgens (LNCaP cells): stimulates
